{"source": "patent US10202361B2", "about": "“Pyridazinones as herbicides” (E I DU PONT DE NEMOURS AND COMPANY, priority 2014, dated 2019)", "assay_type_in_all_cases": "in vivo", "key": {"[1]": {"tested_on": "Russian thistle (Salsola kali)", "experiment": "Test D pre-/postemergence controlled growth environment herbicide test", "conditions": "scale 0 to 100", "how_it_was_run": "(§1)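 Herbicidal effect, both preemergence (silt loam soil) and postemergence (1- to 4-leaf plants, peat-based medium), was scored 14–21 d post-treatment on a 0–100 control scale relative to untreated plants; applications used a non-phytotoxic solvent formulation with surfactant.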"}, "[2]": {"tested_on": "bluegrass (annual bluegrass, Poa annua)", "experiment": "Test D pre-/postemergence controlled growth environment herbicide test", "conditions": "scale 0 to 100", "how_it_was_run": "as §1"}, "[3]": {"tested_on": "lambsquarters (Chenopodium album)", "experiment": "Test D pre-/postemergence controlled growth environment herbicide test", "conditions": "scale 0 to 100", "how_it_was_run": "as §1"}, "[4]": {"tested_on": "mustard, wild (wild mustard, Sinapis arvensis)", "experiment": "Test D pre-/postemergence controlled growth environment herbicide test", "conditions": "scale 0 to 100", "how_it_was_run": "as §1"}, "[5]": {"tested_on": "speedwell (bird's-eye speedwell, Veronica persica)", "experiment": "Test D pre-/postemergence controlled growth environment herbicide test", "conditions": "scale 0 to 100", "how_it_was_run": "as §1"}, "[6]": {"tested_on": "wheat, spring (spring wheat, Triticum aestivum)", "experiment": "Test D pre-/postemergence controlled growth environment herbicide test", "conditions": "scale 0 to 100", "how_it_was_run": "as §1"}, "[7]": {"tested_on": "crabgrass, large (large crabgrass Digitaria sanguinalis)", "experiment": "Test E pre-/postemergence greenhouse herbicide test", "conditions": "Preemergence, scale 0 to 100"}, "[8]": {"tested_on": "cocklebur (common cocklebur, Xanthium strumarium)", "experiment": "Test E pre-/postemergence greenhouse herbicide test", "conditions": "Preemergence, scale 0 to 100"}}}
{"smiles": "COc1cc(=O)n(-c2ccc(F)cc2)nc1Cc1ccnc(C(F)(F)F)c1", "note": "[Compound 17, 2-(4-fluorophenyl)-5-methoxy-6-[[2-(trifluoromethyl)-4-pyridinyl]methyl]-3 (2H)-pyridazinone]", "values": [{"measurement": "Plant response rating", "setting": "[1]; Postemergence, 31 g ai/ha", "value": 30}, {"measurement": "Plant response rating", "setting": "[1]; Postemergence, 62 g ai/ha", "value": 30}, {"measurement": "Plant response rating", "setting": "[1]; Postemergence, 125 g ai/ha", "value": 100}, {"measurement": "Plant response rating", "setting": "[1]; Postemergence, 250 g ai/ha", "value": 100}, {"measurement": "Plant response rating", "setting": "[1]; Postemergence, 500 g ai/ha", "value": 100}, {"measurement": "Plant response rating", "setting": "[1]; Preemergence, 31 g ai/ha", "value": 0}, {"measurement": "Plant response rating", "setting": "[1]; Preemergence, 62 g ai/ha", "value": 100}, {"measurement": "Plant response rating", "setting": "[1]; Preemergence, 125 g ai/ha", "value": 100}, {"measurement": "Plant response rating", "setting": "[1]; Preemergence, 250 g ai/ha", "value": 100}, {"measurement": "Plant response rating", "setting": "[1]; Preemergence, 500 g ai/ha", "value": 100}, {"measurement": "Plant response rating", "setting": "[2]; Postemergence, 31 g ai/ha", "value": 5}, {"measurement": "Plant response rating", "setting": "[2]; Postemergence, 62 g ai/ha", "value": 5}, {"measurement": "Plant response rating", "setting": "[2]; Postemergence, 125 g ai/ha", "value": 5}, {"measurement": "Plant response rating", "setting": "[2]; Postemergence, 250 g ai/ha", "value": 10}, {"measurement": "Plant response rating", "setting": "[2]; Postemergence, 500 g ai/ha", "value": 20}, {"measurement": "Plant response rating", "setting": "[2]; Preemergence, 31 g ai/ha", "value": 0}, {"measurement": "Plant response rating", "setting": "[2]; Preemergence, 62 g ai/ha", "value": 0}, {"measurement": "Plant response rating", "setting": "[2]; Preemergence, 125 g ai/ha", "value": 25}, {"measurement": "Plant response rating", "setting": "[2]; Preemergence, 250 g ai/ha", "value": 60}, {"measurement": "Plant response rating", "setting": "[2]; Preemergence, 500 g ai/ha", "value": 85}, {"measurement": "Plant response rating", "setting": "[3]; Postemergence, 31 g ai/ha", "value": 10}, {"measurement": "Plant response rating", "setting": "[3]; Postemergence, 62 g ai/ha", "value": 50}, {"measurement": "Plant response rating", "setting": "[3]; Postemergence, 125 g ai/ha", "value": 80}, {"measurement": "Plant response rating", "setting": "[3]; Postemergence, 250 g ai/ha", "value": 95}, {"measurement": "Plant response rating", "setting": "[3]; Postemergence, 500 g ai/ha", "value": 100}, {"measurement": "Plant response rating", "setting": "[3]; Preemergence, 31 g ai/ha", "value": 90}, {"measurement": "Plant response rating", "setting": "[3]; Preemergence, 62 g ai/ha", "value": 95}, {"measurement": "Plant response rating", "setting": "[3]; Preemergence, 250 g ai/ha", "value": 90}, {"measurement": "Plant response rating", "setting": "[3]; Preemergence, 500 g ai/ha", "value": 90}, {"measurement": "Plant response rating", "setting": "[4]; Postemergence, 31 g ai/ha", "value": 20}, {"measurement": "Plant response rating", "setting": "[4]; Postemergence, 62 g ai/ha", "value": 50}, {"measurement": "Plant response rating", "setting": "[4]; Postemergence, 125 g ai/ha", "value": 80}, {"measurement": "Plant response rating", "setting": "[4]; Postemergence, 250 g ai/ha", "value": 100}, {"measurement": "Plant response rating", "setting": "[4]; Postemergence, 500 g ai/ha", "value": 100}, {"measurement": "Plant response rating", "setting": "[4]; Preemergence, 31 g ai/ha", "value": 100}, {"measurement": "Plant response rating", "setting": "[4]; Preemergence, 62 g ai/ha", "value": 100}, {"measurement": "Plant response rating", "setting": "[4]; Preemergence, 125 g ai/ha", "value": 100}, {"measurement": "Plant response rating", "setting": "[4]; Preemergence, 250 g ai/ha", "value": 100}, {"measurement": "Plant response rating", "setting": "[4]; Preemergence, 500 g ai/ha", "value": 100}, {"measurement": "Plant response rating", "setting": "[5]; Postemergence, 31 g ai/ha", "value": 10}, {"measurement": "Plant response rating", "setting": "[5]; Postemergence, 62 g ai/ha", "value": 100}, {"measurement": "Plant response rating", "setting": "[5]; Postemergence, 125 g ai/ha", "value": 100}, {"measurement": "Plant response rating", "setting": "[5]; Postemergence, 250 g ai/ha", "value": 100}, {"measurement": "Plant response rating", "setting": "[5]; Postemergence, 500 g ai/ha", "value": 100}, {"measurement": "Plant response rating", "setting": "[5]; Preemergence, 31 g ai/ha", "value": 100}, {"measurement": "Plant response rating", "setting": "[5]; Preemergence, 62 g ai/ha", "value": 100}, {"measurement": "Plant response rating", "setting": "[5]; Preemergence, 125 g ai/ha", "value": 100}, {"measurement": "Plant response rating", "setting": "[5]; Preemergence, 250 g ai/ha", "value": 100}, {"measurement": "Plant response rating", "setting": "[5]; Preemergence, 500 g ai/ha", "value": 100}, {"measurement": "Plant response rating", "setting": "[6]; Postemergence, 31 g ai/ha", "value": 10}, {"measurement": "Plant response rating", "setting": "[6]; Postemergence, 62 g ai/ha", "value": 15}, {"measurement": "Plant response rating", "setting": "[6]; Postemergence, 125 g ai/ha", "value": 20}, {"measurement": "Plant response rating", "setting": "[6]; Postemergence, 250 g ai/ha", "value": 20}, {"measurement": "Plant response rating", "setting": "[6]; Postemergence, 500 g ai/ha", "value": 30}, {"measurement": "Plant response rating", "setting": "[6]; Preemergence, 31 g ai/ha", "value": 0}, {"measurement": "Plant response rating", "setting": "[6]; Preemergence, 62 g ai/ha", "value": 15}, {"measurement": "Plant response rating", "setting": "[6]; Preemergence, 125 g ai/ha", "value": 30}, {"measurement": "Plant response rating", "setting": "[6]; Preemergence, 250 g ai/ha", "value": 70}, {"measurement": "Plant response rating", "setting": "[6]; Preemergence, 500 g ai/ha", "value": 90}, {"measurement": "Plant response rating: Crabgrass, Large", "setting": "[7]; 16 g ai/ha", "value": 35}, {"measurement": "Plant response rating: Crabgrass, Large", "setting": "[7]; 31 g ai/ha", "value": 100}, {"measurement": "Plant response rating: Crabgrass, Large", "setting": "[7]; 62 g ai/ha", "value": 100}, {"measurement": "Plant response rating: Crabgrass, Large", "setting": "[7]; 125 g ai/ha", "value": 100}, {"measurement": "Plant response rating: Crabgrass, Large", "setting": "[7]; 250 g ai/ha", "value": 100}, {"measurement": "Plant response rating: Cocklebur", "setting": "[8]; 16 g ai/ha", "value": 0}, {"measurement": "Plant response rating: Cocklebur", "setting": "[8]; 62 g ai/ha", "value": 0}]}
{"smiles": "CCOc1cc(=O)n(-c2ccc(F)cc2)nc1Cc1ccnc(C(F)(F)F)c1", "note": "[Compound 25, 5-ethoxy-2-(4-fluorophenyl)-6-[[2-(trifluoromethyl)-4-pyridinyl]methyl]-3 (2H)-pyridazinone]", "values": [{"measurement": "Plant response rating: Crabgrass, Large", "setting": "[7]; 8 g ai/ha", "value": 0}, {"measurement": "Plant response rating: Crabgrass, Large", "setting": "[7]; 16 g ai/ha", "value": 0}, {"measurement": "Plant response rating: Crabgrass, Large", "setting": "[7]; 31 g ai/ha", "value": 75}, {"measurement": "Plant response rating: Crabgrass, Large", "setting": "[7]; 62 g ai/ha", "value": 100}, {"measurement": "Plant response rating: Crabgrass, Large", "setting": "[7]; 125 g ai/ha", "value": 100}, {"measurement": "Plant response rating: Cocklebur", "setting": "[8]; 8 g ai/ha", "value": 0}, {"measurement": "Plant response rating: Cocklebur", "setting": "[8]; 16 g ai/ha", "value": 50}, {"measurement": "Plant response rating: Cocklebur", "setting": "[8]; 31 g ai/ha", "value": 20}, {"measurement": "Plant response rating: Cocklebur", "setting": "[8]; 62 g ai/ha", "value": 65}, {"measurement": "Plant response rating: Cocklebur", "setting": "[8]; 125 g ai/ha", "value": 65}]}
